What was measured:
aldose reductase = assay: Lens polyol (dulcitol) accumulation in galactose-fed rats; type: in vivo, rat (male albino, Spraque-Dawley); details: for Mean Polyol Accumulation, Micromoles Dulcitol/g of Tissue: rat lens 24 h after third dose
Procedure: As discussed hereinabove, sugar cataract formation is a frequent complication of the diabetic patient and their occurrence is apparent even in patients where diabetes appears controlled. […] The accumulation of polyols in the lens tissue results in osmotic and histological changes which are characteristic of sugar cataracts. […] Control rats received a 10% galactose solution at a dose level of 10 ml/kg. daily for three days. The total dose was 1 g/kg daily. Six animals per control group were used. Groups receiving galactose plus test drug contained three rats. The routine starting dose of a test drug was 100 mg/kg. orally for three days with galactose given simultaneously. The test drug was administered at a volume of 5 ml/kg. The test drug solution and the galactose solution were administered together. Twenty-four hours after the third dose the lens of the eyeballs were carefully removed from the sacrificed rats and the polyol content of the lens determined according to West and Rapport, Proc. Soc. Exp. Biol. Med. 70, 141-142 (1949).

[1] = molecular target: T1, Aldose reductase isolated from bovine lens (Bos taurus, UniProt P16116); assay: Inhibition of aldose reductase isolated from bovine lens (Lineweaver-Burk); type: biochemical; details: procedure of Lineweaver and Burk, read-out: Amount which inhibits the maximum velocity of the aldose reductase activity by 50% (IC50)
T1 construct: Aldose reductase was isolated from bovine lens; from tissue; host or cells: bovine lens
Procedure: The ability of 4,5-dihydro-4H-pyrrolo[3,2,1-ij]quinoline-1,2-dione to inhibit aldose reductase activity was determined according to the procedure of Lineweaver, H., and Burk D., The Determination of Enzyme Dissociation Constants, J. Am. Chem. Soc. 658-666 (1934).
Aldose reductase was isolated from bovine lens and the activity of the enzyme determined according to Gabbay, R. H. and Kinoshita, J. H., Methods in Enzymology, Vol. XLI (B) 37:159.

| SMILES | Mean Polyol Accumulation, Micromoles Dulcitol/g of Tissue (aldose reductase; Experiment No. 1, 100 mg/kg PO daily for three days with galactose 1 g/kg daily, galactose controls 3.7) | Mean Polyol Accumulation, %± Control (aldose reductase; Experiment No. 1, 100 mg/kg PO daily for three days with galactose, rat lens, vs galactose controls) | Mean Polyol Accumulation, %± Control (aldose reductase; po, 100 mg/kg, 72 h) | IC50 [1] | Mean Polyol Accumulation, Micromoles Dulcitol/g of Tissue (aldose reductase; Experiment No. 1, 200 mg/kg PO daily for three days with galactose 1 g/kg daily, galactose controls 3.7) | Mean Polyol Accumulation, %± Control (aldose reductase; Experiment No. 1, 200 mg/kg PO daily for three days with galactose, rat lens, vs galactose controls) | Mean Polyol Accumulation, Micromoles Dulcitol/g of Tissue (aldose reductase; Experiment No. 2, 100 mg/kg PO daily for three days with galactose 1 g/kg daily, galactose controls 4.3) | Mean Polyol Accumulation, %± Control (aldose reductase; Experiment No. 2, 100 mg/kg PO daily for three days with galactose, rat lens, vs galactose controls) |
| --- | --- | --- | --- | --- | --- | --- | --- | --- |
| O=C1C(=O)N2CCCc3cccc1c32 [AHR-5191, 5,6-dihydro-4H-pyrrolo[3,2,1-ij]quinoline-1,2-dione] | 2.1 Micromoles Dulcitol/g of Tissu | -43.2% | -37.0% | 80 µM |  |  |  |  |
| O=C(O)CN1C(=O)c2cccc3cccc(c23)C1=O [Ay-22,284, 1,3-dioxo-1H-benz[de]isoquinoline-2(3H) acetic acid] |  |  |  | 90 µM | 2.7 Micromoles Dulcitol/g of Tissu | -27% | 5.9 Micromoles Dulcitol/g of Tissu | +37.2% |

Reference: US4151282A, “Compositions and methods for treating diabetic complications” (A. H. Robins Company, Inc., priority 1977, dated 1979)
